Data published in ChEMBL document CHEMBL1134123, “Potent nonpeptide GnRH receptor antagonists derived from substituted indole-5-carboxamides and -acetamides bearing a pyridine side-chain terminus” (Bioorg Med Chem Lett, 2001).

Legend:
[1] = biological target: T1, Gonadotropin-releasing hormone receptor (Homo sapiens, UniProt P30968); assay: Inhibition of GnRH-stimulated phosphatidylinositol (PI) hydrolysis in cloned chinese hamster ovary (CHO) cells expressing human GnRH receptor.; assay type: functional, cell-based
T1 sequence (P30968 whole entry): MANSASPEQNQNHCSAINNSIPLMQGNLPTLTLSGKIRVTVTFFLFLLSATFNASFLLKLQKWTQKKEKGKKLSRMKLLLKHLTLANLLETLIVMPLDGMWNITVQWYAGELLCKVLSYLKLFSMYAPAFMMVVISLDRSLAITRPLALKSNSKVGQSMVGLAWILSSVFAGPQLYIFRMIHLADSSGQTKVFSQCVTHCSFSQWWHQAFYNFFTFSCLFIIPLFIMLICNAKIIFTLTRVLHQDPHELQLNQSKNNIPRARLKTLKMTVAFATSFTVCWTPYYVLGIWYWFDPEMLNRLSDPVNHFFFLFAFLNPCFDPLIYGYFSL

[2] = biological target: Gonadotropin-releasing hormone receptor (Homo sapiens) (UniProt P30968); assay: Inhibition of [125I]buserelin binding to human Gonadotropin-releasing hormone receptor.
[3] = biological target: T2, Gonadotropin-releasing hormone receptor (Rattus norvegicus, UniProt P30969); assay: Inhibition of GnRH-stimulated luteinizing hormone (LH) release in rat pituitary cells; assay type: functional, cell-based, Pituitary gland cell
T2 sequence (P30969 whole entry): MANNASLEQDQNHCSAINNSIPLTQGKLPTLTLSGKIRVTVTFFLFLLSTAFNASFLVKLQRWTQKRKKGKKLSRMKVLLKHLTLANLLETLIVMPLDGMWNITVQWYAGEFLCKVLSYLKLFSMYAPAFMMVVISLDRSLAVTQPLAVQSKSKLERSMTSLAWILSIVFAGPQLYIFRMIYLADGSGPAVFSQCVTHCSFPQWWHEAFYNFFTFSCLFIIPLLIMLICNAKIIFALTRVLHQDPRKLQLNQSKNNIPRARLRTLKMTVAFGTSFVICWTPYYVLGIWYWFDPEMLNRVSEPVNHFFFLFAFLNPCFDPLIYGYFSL

[4] = biological target: T1, Gonadotropin-releasing hormone receptor; assay: Inhibition of [125I]buserelin binding to human Gonadotropin-releasing hormone receptor.
[5] = biological target: T2, Gonadotropin-releasing hormone receptor; assay: Inhibition of [125I]buserelin binding to rat Gonadotropin-releasing hormone receptor.
[6] = biological target: T2, Gonadotropin-releasing hormone receptor; assay: Compound tested for the inhibition of GnRH-stimulated luteinizing hormone (LH) release in rat pituitary cells; assay type: functional, cell-based, Pituitary gland cell

SMILES	IC50 [1]	IC50 [2]	IC50 [3]	IC50 [4]	IC50 [5]	IC50 [6]
Cc1cc(C)cc(-c2[nH]c3ccc(C(C)(C)C(=O)N4C5CCC4CC5)cc3c2CCN(CCCCc2ccncc2)C(C)C)c1	200 nM	3.1 nM	–	–	–	–
Cc1cc(C)cc(-c2[nH]c3ccc(C(=O)N(C)C)cc3c2CCNCCCCc2ccncc2)c1	–	–	1460 nM	–	0.8 nM	–
CCN(C(=O)c1ccc2[nH]c(-c3cc(C)cc(C)c3)c(CCNCCCCc3cccnc3)c2c1)C(C)C	110 nM	–	830 nM	11 nM	–	–
Cc1cc(C)cc(-c2[nH]c3ccc(C4(C(=O)N5C6CCC5CC6)CCC4)cc3c2CCNCCCCc2ccncc2)c1	170 nM	1.2 nM	–	–	–	–
CCN(CCCCc1ccncc1)CCc1c(-c2cc(C)cc(C)c2)[nH]c2ccc(C(C)(C)C(=O)N3C4CCC3CC4)cc12	90 nM	2.2 nM	730 nM	–	–	–
CCN(CCO)C(=O)c1ccc2[nH]c(-c3cc(C)cc(C)c3)c(CCNCCCCc3ccncc3)c2c1	260 nM	–	1000 nM	36 nM	–	–
CCN(CC)C(=O)c1ccc2[nH]c(-c3cc(C)cc(C)c3)c(CCNCCCCc3ccncc3)c2c1	12 nM	–	470 nM	18 nM	0.5 nM	–
COCCN(CCOC)C(=O)c1ccc2[nH]c(-c3cc(C)cc(C)c3)c(CCNCCCCc3cccnc3)c2c1	610 nM	–	1300 nM	45 nM	–	–
Cc1cc(C)cc(-c2[nH]c3ccc(C(C)(C)C(=O)N4CCOCC4)cc3c2CCNCCCCc2ccncc2)c1	59 nM	11 nM	540 nM	–	–	–
Cc1cc(C)cc(-c2[nH]c3ccc(C(C)(C)C(=O)N4CCCC4)cc3c2CCNCCCCc2ccncc2)c1	–	4.8 nM	–	–	–	340 nM
Cc1cc(C)cc(-c2[nH]c3ccc(C(C)(C)C(=O)N4C5CCC4CC5)cc3c2CCN(CCCCc2ccncc2)CC(C)C)c1	300 nM	8.2 nM	–	–	–	–
Cc1cc(C)cc(-c2[nH]c3ccc(C(C)(C)C(=O)N4CCCCC4)cc3c2CCNCCCCc2ccncc2)c1	38 nM	1.8 nM	1200 nM	–	–	–
CCN(CCO)C(=O)c1ccc2[nH]c(-c3cc(C)cc(C)c3)c(CCNCCCCc3cccnc3)c2c1	–	–	1200 nM	–	0.6 nM	–
Cc1cc(C)cc(-c2[nH]c3ccc(C(=O)N(C)C)cc3c2CCNCCCCc2cccnc2)c1	–	–	2600 nM	–	0.7 nM	–
Cc1cc(C)cc(-c2[nH]c3ccc(C(=O)N4CCOCC4)cc3c2CCNCCCCc2cccnc2)c1	–	–	1600 nM	–	0.4 nM	–
Cc1cc(C)cc(-c2[nH]c3ccc(C(=O)NC(C)C)cc3c2CCNCCCCc2cccnc2)c1	1200 nM	–	> 1300 nM	55 nM	–	–
Cc1cc(C)cc(-c2[nH]c3ccc(C(C)(C)C(=O)N(C)C)cc3c2CCNCCCCc2cccnc2)c1	–	–	680 nM	–	0.5 nM	–
Cc1cc(C)cc(-c2[nH]c3ccc(C(C)(C)C(N)=O)cc3c2CCNCCCCc2cccnc2)c1	350 nM	–	–	32 nM	–	–
Cc1cc(C)cc(-c2[nH]c3ccc(C(C)(C)C(=O)N(C)C)cc3c2CCNCCCCc2ccncc2)c1	–	–	930 nM	–	0.3 nM	–
CCCCN(CCCC)C(=O)c1ccc2[nH]c(-c3cc(C)cc(C)c3)c(CCNCCCCc3cccnc3)c2c1	–	–	1000 nM	–	0.4 nM	–
Cc1cc(C)cc(-c2[nH]c3ccc(C(=O)N(CC(F)(F)F)CC(F)(F)F)cc3c2CCNCCCCc2ccncc2)c1	91 nM	–	3600 nM	36 nM	0.6 nM	–
CCN(C(=O)C(C)(C)c1ccc2[nH]c(-c3cc(C)cc(C)c3)c(CCNCCCCc3ccncc3)c2c1)C1CCCCC1	54 nM	2.3 nM	960 nM	–	–	–
Cc1cc(C)cc(-c2[nH]c3ccc(C(=O)N4CCCC4)cc3c2CCNCCCCc2ccncc2)c1	–	–	> 1300 nM	–	0.5 nM	–
Cc1cc(C)cc(-c2[nH]c3ccc(C(=O)N4CCOCC4)cc3c2CCNCCCCc2ccncc2)c1	–	–	1400 nM	–	0.3 nM	–
Cc1cc(C)cc(-c2[nH]c3ccc(C(=O)N4CCCC4)cc3c2CCNCCCCc2cccnc2)c1	–	–	5100 nM	–	0.6 nM	–
Cc1cc(C)cc(-c2[nH]c3ccc(C(=O)N4C5CCC4CC5)cc3c2CCNCCCCc2ccncc2)c1	260 nM	–	–	32 nM	–	–

More lines, in order of falling IC50 [3], values ahead:

IC50 [1]	IC50 [2]	IC50 [3]	IC50 [4]	IC50 [5]	IC50 [6]	SMILES
58 nM	–	430 nM	30 nM	–	–	CCN(CC)C(=O)c1ccc2[nH]c(-c3cc(C)cc(C)c3)c(CCN(C)CCCCc3ccncc3)c2c1
22 nM	1.7 nM	400 nM	–	–	–	Cc1cc(C)cc(-c2[nH]c3ccc(C(C)(C)C(=O)N(CC(C)C)CC(C)C)cc3c2CCNCCCCc2cccnc2)c1
190 nM	–	400 nM	23 nM	0.6 nM	–	CCN(CC)C(=O)c1ccc2[nH]c(-c3cc(C)cc(C)c3)c(CCNCCCCc3cccnc3)c2c1
–	–	400 nM	–	0.3 nM	–	Cc1cc(C)cc(-c2[nH]c3ccc(C(=O)N(C(C)C)C(C)C)cc3c2CCNCCCCc2ccncc2)c1
80 nM	–	380 nM	7.1 nM	0.6 nM	–	Cc1cc(C)cc(-c2[nH]c3ccc(C(=O)N(CC(C)C)CC(C)C)cc3c2CCNCCCCc2ccncc2)c1
62 nM	–	360 nM	3.6 nM	–	–	Cc1cc(C)cc(-c2[nH]c3ccc(C(=O)N4C(C)CCC4C)cc3c2CCNCCCCc2cccnc2)c1 (stereo not given)
–	–	340 nM	–	0.3 nM	–	Cc1cc(C)cc(-c2[nH]c3ccc(C(=O)N4C(C)CCC4C)cc3c2CCNCCCCc2ccncc2)c1 (stereo not given)
61 nM	5 nM	290 nM	–	–	–	Cc1cc(C)cc(-c2[nH]c3ccc(C(C)(C)C(=O)N4CCCC4)cc3c2CCNCCCCc2cccnc2)c1
40 nM	1.7 nM	260 nM	–	–	–	CCC(CC)(C(=O)N1C2CCC1CC2)c1ccc2[nH]c(-c3cc(C)cc(C)c3)c(CCNCCCCc3ccncc3)c2c1
–	–	240 nM	–	0.4 nM	–	CCCCN(CCCC)C(=O)c1ccc2[nH]c(-c3cc(C)cc(C)c3)c(CCNCCCCc3ccncc3)c2c1
94 nM	3.3 nM	240 nM	–	–	–	CCN(CC)C(=O)C(C)(C)c1ccc2[nH]c(-c3cc(C)cc(C)c3)c(CCNCCCCc3cccnc3)c2c1
38 nM	1 nM	240 nM	–	–	–	CCC(C)(C(=O)N1C2CCC1CC2)c1ccc2[nH]c(-c3cc(C)cc(C)c3)c(CCNCCCCc3ccncc3)c2c1 (stereo not given)
58 nM	3.2 nM	210 nM	–	–	–	CCN(CC)C(=O)C(C)(C)c1ccc2[nH]c(-c3cc(C)cc(C)c3)c(CCNCCCCc3ccncc3)c2c1
62 nM	1 nM	190 nM	–	–	–	Cc1cc(C)cc(-c2[nH]c3ccc(C(C)(C)C(=O)N4CC(C)(C)C4)cc3c2CCNCCCCc2cccnc2)c1
15 nM	2.8 nM	160 nM	–	–	–	Cc1cc(C)cc(-c2[nH]c3ccc(C(C)(C)C(=O)N4C(C)CCC4C)cc3c2CCNCCCCc2ccncc2)c1 (stereo not given)
120 nM	–	150 nM	5 nM	0.7 nM	–	Cc1cc(C)cc(-c2[nH]c3ccc(C(=O)N(CC(C)C)CC(C)C)cc3c2CCNCCCCc2cccnc2)c1
16 nM	–	140 nM	2.3 nM	0.2 nM	–	CCN(C(=O)c1ccc2[nH]c(-c3cc(C)cc(C)c3)c(CCNCCCCc3cccnc3)c2c1)C1CCCCC1
8.3 nM	2.8 nM	140 nM	–	–	–	Cc1cc(C)cc(-c2[nH]c3ccc(C(C)(C)C(=O)N(CC(C)C)CC(C)C)cc3c2CCNCCCCc2ccncc2)c1
22 nM	–	130 nM	2.8 nM	0.4 nM	–	CCN(C(=O)c1ccc2[nH]c(-c3cc(C)cc(C)c3)c(CCNCCCCc3ccncc3)c2c1)C1CCCCC1
15 nM	–	81 nM	1.9 nM	–	–	CCN(C(=O)c1ccc2[nH]c(-c3cc(C)cc(C)c3)c(CCNCCCCc3ccncc3)c2c1)C1CCCCCCC1
14 nM	1.4 nM	73 nM	–	–	–	Cc1cc(C)cc(-c2[nH]c3ccc(C(C)(C)C(=O)N4C5CCC4CC5)cc3c2CCNCCCCc2cccnc2)c1
110 nM	1.5 nM	71 nM	–	–	–	Cc1cc(C)cc(-c2[nH]c3ccc(C(C)(C)C(=O)N4C5CCC4CC5)cc3c2CCN(C)CCCCc2ccncc2)c1
18 nM	1.4 nM	71 nM	–	–	–	Cc1cc(C)cc(-c2[nH]c3ccc(C(C)(C)C(=O)N4C5CCC4CC5)cc3c2CCNCCCCc2ccncc2)c1
